Results taken from patent publication US20020103111A1, “Inhibitors of MAdCAM-1-mediated interactions and methods of use therefor” (Millennium Pharmaceuticals, Inc., priority 1996, published 2002).

target: T1, human MAdCAM-1 (huMAdCAM-1-Ig chimera); RPMI 8866 cells expressing α4β7 (Homo sapiens, UniProt P13612+P26010); assay: huMAdCAM-1-Ig/RPMI 8866 Adhesion Assay; format: cell-based; conditions: Table 6, R1-Leu-Asp-Thr, read-out: hMAdCAM IC50
T1 construct: RPMI 8866 cells, a B cell lymphoma expressing α4β7; endogenous in cells; host or cells: RPMI 8866 cells (endogenous α4β7)
Method: RPMI 8866 cells, a B cell lymphoma expressing α4β7 (a gift from D. Erle; Erle, D. J. et al., J. Immunol., 153:517-528 (1994); Shyjan et al., Journal of Immunology, 1996:2851 (1996) were fluorescently labeled (labeling protocol provided below) using BCECF (Molecular probes #B-1170). Cells were resuspended in an assay buffer consisting of Hanks Balanced Salt Solution (HBSS) supplemented with fetal calf serum (FCS) at a final concentration of 2%, HEPES, pH 7.3 at 25 mM. All reagents in this buffer were supplied from Gibco/BRL.
All assays were performed in 96 well strip well plates from Costar (E.I.A./R.I.A. Strip plate-8 Cat. #2581). […] The plates were incubated at 37° C. for one hour (or at 4° C. overnight) and washed once in the automatic plate washer (50 mM Tris HCl, 0.14 M NaCl and 2.0 mM MnCl2 at pH 7.2) (Bio-Tek EL 404 microplate autowasher). Wells were then blocked with PBS (phosphate buffered saline) and 10% FCS (100 μl/well) for one hour at 37° C. followed by the same wash step as described.
Cells were labeled with BCECF-AM (Molecular Probes, Cat. No. B-1170) at a concentration of 2 μl/ml to a cell suspension of 4×10^6 cells/ml in PBS. The cells were incubated in a 37° C. water bath for 30 minutes. Labeled cells were centrifuged at 700 RPM for 10 minutes, resuspended in assay buffer and the centrifugation step was repeated. The cells were resuspended at a final concentration of 2.5×10^6 cells/ml.
For assays, compounds were diluted as follows in a 96 well polypropylene plate. First, a stock solution of each compound was prepared by dissolving compound in 100% DMSO at 100X final concentration to be tested. 10 μl of the stock was added to 90 μl water for the first test dilution. 50 μl of the first test dilution was added to 50 μl of 10% DMSO in water for the second test dilution. 50 μl of the second test dilution was added to 50 μl of 10% DMSO in water for the third test dilution. 50 μof the third test dilution was added to 50 μl of 10% DMSO in water for the fourth test dilution, and so on, until six test dilutions were prepared.
A stock solution of SmM positive control peptide (L783-1A) was made in 100% DMSO, and subsequently diluted in water 1:10 (10 μl of 5 mM stock plus 90 μl of water) to yield a concentration of 0.5mM. This dilution was then further diluted 1:2 with 10% DMSO (50 μl of the compound and 50 μl of 10% DMSO) for a concentration of 250 μM. These 1:2 dilutions were continued serially until six dilutions were achieved. These dilutions represent 10X stocks as shown in the assay set up below:
The assay was set up by adding materials to huMAdCAM-1-Ig-coated plates as follows:
1) 130 μl/well of assay buffer
2) 20 μl/well of diluted compounds or 10% DMSO (control) or diluted positive control peptide.
3) 50 μl of ECECF-AM-labeled RPMI 8866 cells
The plates were wrapped in foil and incubated for 30 minutes at room temperature on a rotary shaker at 45 RPM.
Plates were washed twice (50 mM Tris HCl, […] and 2.0 mM MnCl2 at pH 7.2) on the microplate autowasher plate washer set as follows:
Plates were read in an IDEX fluoresecent plate reader set to excite at 485 nm and read at 535 nm.
Data was collected in microsoft excel in a format for automatic IC 50 determinations.

T1 sequence (P13612 34-1032, change not shown): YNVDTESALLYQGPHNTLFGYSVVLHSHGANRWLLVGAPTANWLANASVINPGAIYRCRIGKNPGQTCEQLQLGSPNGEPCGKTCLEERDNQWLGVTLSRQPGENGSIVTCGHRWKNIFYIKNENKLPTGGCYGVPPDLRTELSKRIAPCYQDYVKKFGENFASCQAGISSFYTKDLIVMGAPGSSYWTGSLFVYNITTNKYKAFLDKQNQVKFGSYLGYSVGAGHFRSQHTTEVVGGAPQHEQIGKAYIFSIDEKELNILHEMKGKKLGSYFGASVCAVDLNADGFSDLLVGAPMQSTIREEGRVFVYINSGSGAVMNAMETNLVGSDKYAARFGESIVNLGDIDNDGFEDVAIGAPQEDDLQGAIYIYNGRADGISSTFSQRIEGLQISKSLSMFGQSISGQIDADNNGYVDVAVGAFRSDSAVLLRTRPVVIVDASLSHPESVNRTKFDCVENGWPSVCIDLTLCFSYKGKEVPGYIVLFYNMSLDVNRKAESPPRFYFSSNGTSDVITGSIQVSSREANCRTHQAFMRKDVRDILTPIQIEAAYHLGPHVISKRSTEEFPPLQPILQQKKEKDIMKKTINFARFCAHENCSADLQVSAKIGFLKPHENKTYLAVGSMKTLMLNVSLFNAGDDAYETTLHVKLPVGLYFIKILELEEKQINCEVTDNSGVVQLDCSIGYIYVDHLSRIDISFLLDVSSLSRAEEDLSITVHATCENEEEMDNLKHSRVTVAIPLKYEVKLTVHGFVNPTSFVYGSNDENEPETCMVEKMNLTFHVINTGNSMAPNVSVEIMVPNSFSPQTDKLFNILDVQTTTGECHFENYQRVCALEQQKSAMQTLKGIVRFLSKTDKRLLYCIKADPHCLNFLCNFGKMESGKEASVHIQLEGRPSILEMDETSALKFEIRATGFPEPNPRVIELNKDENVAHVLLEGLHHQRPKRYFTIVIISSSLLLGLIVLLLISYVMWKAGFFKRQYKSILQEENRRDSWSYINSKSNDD
T1 sequence (P26010 20-798, change not shown): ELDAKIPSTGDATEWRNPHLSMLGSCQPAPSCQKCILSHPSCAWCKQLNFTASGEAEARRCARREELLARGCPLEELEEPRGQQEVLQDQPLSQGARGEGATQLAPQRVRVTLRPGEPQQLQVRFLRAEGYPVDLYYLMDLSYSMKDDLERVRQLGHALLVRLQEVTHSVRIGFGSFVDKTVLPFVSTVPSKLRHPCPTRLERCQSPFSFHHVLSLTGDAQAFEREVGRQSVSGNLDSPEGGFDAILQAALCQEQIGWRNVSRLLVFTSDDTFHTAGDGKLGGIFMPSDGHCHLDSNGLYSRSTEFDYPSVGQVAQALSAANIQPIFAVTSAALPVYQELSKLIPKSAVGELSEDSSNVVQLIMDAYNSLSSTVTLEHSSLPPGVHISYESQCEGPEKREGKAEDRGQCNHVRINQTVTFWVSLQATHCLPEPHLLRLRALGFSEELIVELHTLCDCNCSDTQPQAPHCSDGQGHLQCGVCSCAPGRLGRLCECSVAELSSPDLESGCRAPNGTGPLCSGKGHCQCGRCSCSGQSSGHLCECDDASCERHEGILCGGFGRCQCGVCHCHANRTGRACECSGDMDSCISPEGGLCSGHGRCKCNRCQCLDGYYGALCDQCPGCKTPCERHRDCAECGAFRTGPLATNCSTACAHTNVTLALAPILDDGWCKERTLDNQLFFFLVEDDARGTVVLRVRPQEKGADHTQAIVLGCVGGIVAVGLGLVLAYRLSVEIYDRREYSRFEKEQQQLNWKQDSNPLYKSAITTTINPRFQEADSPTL

Row | SMILES | IC50 [nM]
1 | CC(C)C[C@H](NC(=O)c1cccc(C(F)(F)F)c1)C(=O)N[C@@H](CC(=O)O)C(=O)N[C@H](C(N)=O)[C@@H](C)O [Table 6 example 7] | 2800
2 | CC(C)C[C@H](NC(=O)c1ccc(C(C)(C)C)cc1)C(=O)N[C@@H](CC(=O)O)C(=O)N[C@H](C(N)=O)[C@@H](C)O [Table 6 example 4] | 1100
3 | CC(C)C[C@H](NC(=O)c1coc2ccccc2c1=O)C(=O)N[C@@H](CC(=O)O)C(=O)N[C@H](C(N)=O)[C@@H](C)O [Table 6 example 2] | 730
4 | CC(C)C[C@H](NC(=O)c1cccc(Cl)c1)C(=O)N[C@@H](CC(=O)O)C(=O)N[C@H](C(N)=O)[C@@H](C)O [Table 6 example 3] | 1400
5 | CC(C)C[C@H](NC(=O)c1sccc1Br)C(=O)N[C@@H](CC(=O)O)C(=O)N[C@H](C(N)=O)[C@@H](C)O [Table 6 example 6] | 2600
6 | Cc1nc(Cl)ccc1C(=O)N[C@@H](CC(C)C)C(=O)N[C@@H](CC(=O)O)C(=O)N[C@H](C(N)=O)[C@@H](C)O [Table 6 example 9] | 1100
7 | CCCCCCOc1ccc(C(=O)N[C@@H](CC(C)C)C(=O)N[C@@H](CC(=O)O)C(=O)N[C@H](C(N)=O)[C@@H](C)O)cc1 [Table 6 example 1] | 580
8 | CC(C)C[C@H](NC(=O)c1cccc(F)c1F)C(=O)N[C@@H](CC(=O)O)C(=O)N[C@H](C(N)=O)[C@@H](C)O [Table 6 example 8] | 2000

same assay, conditions: Table 7, R1-Leu-Asp-Thr-R2, read-out: hMAdCAM IC50

Row | SMILES | IC50 [nM]
9 | Cc1cccc(CNC(=O)[C@@H](NC(=O)[C@H](CC(=O)O)NC(=O)[C@H](CC(C)C)NC(=O)c2cc3ccccc3cn2)[C@@H](C)O)c1 [Table 7 example 5] | 810
10 | CC(C)C[C@H](NC(=O)c1cc2ccccc2o1)C(=O)N[C@@H](CC(=O)O)C(=O)N[C@H](C(=O)NC1CCc2ccccc21)[C@@H](C)O (stereo partly drawn) [Table 7 example 10] | 1500
11 | CC(C)C[C@H](NC(=O)c1cc2ccccc2cn1)C(=O)N[C@@H](CC(=O)O)C(=O)N[C@H](C(=O)NC1CC1)[C@@H](C)O [Table 7 example 7] | 3800
12 | CC(C)C[C@H](NC(=O)c1cc2ccccc2cn1)C(=O)N[C@@H](CC(=O)O)C(=O)N[C@H](C(=O)N1CCc2ccccc2C1)[C@@H](C)O [Table 7 example 1] | 780
13 | CC(C)C[C@H](NC(=O)c1cc2ccccc2cn1)C(=O)N[C@@H](CC(=O)O)C(=O)N[C@H](C(=O)NC1CCCCCCC1)[C@@H](C)O [Table 7 example 8] | 1300
14 | CC(C)C[C@H](NC(=O)c1cc2ccccc2cn1)C(=O)N[C@@H](CC(=O)O)C(=O)N[C@H](C(=O)N[C@@H](C)c1cccc2ccccc12)[C@@H](C)O [Table 7 example 6] | 970
15 | CC(C)C[C@H](NC(=O)c1cc2ccccc2cn1)C(=O)N[C@@H](CC(=O)O)C(=O)N[C@H](C(=O)N1CCC(C)OC1C)[C@@H](C)O (stereo partly drawn) [Table 7 example 3] | 970
16 | CC(C)C[C@H](NC(=O)c1cc2ccccc2cn1)C(=O)N[C@@H](CC(=O)O)C(=O)N[C@H](C(=O)NCCO)[C@@H](C)O [Table 7 example 9] | 1500
17 | CC(C)C[C@H](NC(=O)c1cc2ccccc2cn1)C(=O)N[C@@H](CC(=O)O)C(=O)N[C@H](C(=O)NCCC1=CCCCC1)[C@@H](C)O [Table 7 example 4] | 640

same assay, conditions: read-out: hMAdCAM IC50, Table 7, R1-Leu-Asp-Thr-R2

Row | SMILES | IC50 [nM]
18 | CC(C)C[C@H](NC(=O)c1cc2ccccc2cn1)C(=O)N[C@@H](CC(=O)O)C(=O)N[C@H](C(=O)N1CCC(=O)CC1)[C@@H](C)O [Table 7 example 2] | 940
